Results published in patent US9085593B2, “Therapeutic agent for arthrosis” (SANSHO CO., LTD., priority 2011, dated 2015).
Where “and” joins values, the source holds several entries; their conditions need not be identical. Equal entries are not always repeated.

Test system: osteoarthritis in rabbit knee
Assay: Swelling assessment (articular swelling of both hind limbs), rabbit knee osteoarthritis model
Assay type: in vivo, rabbits (Kbs:NZW)
Procedure: Twelve 11- to 12-week-old male rabbits (Kbs:NZW) were used. Rabbits were reared in separate cages (one rabbit per cage) at 14.4° C. to 24.9° C. under light (12 hours from 7:00 am to 7:00 pm) with continuous ventilation. Rabbits were allowed to eat 150 g of feed (CR-3, CLEA Japan, Inc.) per day and to drink tap water.
(9Z)-9-Octadecenoic acid-(2-hydroxy-2-oxide-1,2-oxaphospholan-4-yl)methyl ester sodium salt (C18:1-cPA; hereafter, referred to as “ScPA”) was used.
Hair in the vicinity of the knee joint of the right hind limb of a rabbit was shaved using electrical clippers under deep anesthesia, and the shaved area was disinfected with Isodine. The outer coat on the medial aspect of the right hind limb was incised with a surgical knife, the boundary between the medial aspect and the articular capsule of the patellofemoral ligament was further incised, and the medial patellofemoral ligament was then dissected. Thereafter, the articular capsule was spread wide open to expose the medial meniscus, which was then completely removed. Following the removal of the meniscus, tissue and epidermis in the vicinity of the articular capsule were sutured. At the time of suturing, the site of operation was washed with physiological saline (titer: 500 mg/20 ml) containing antibiotics (Viccillin, Meiji Seika Pharma Co., Ltd.).
After the model animals were prepared, they were divided into two groups each consisting of 6 individuals while averaging body […] (i.e., the vehicle administered group of Animal Numbers 101 to 106 and the test substance (ScPA) administered group of Animal Numbers 201 to 206).
The test compound and the vehicle were administered in the manner described below. • Route of administration: into the joint cavity • Site of administration: right hind limb (treated limb) • Timing of administration: on days 7, 11, 14, 18, 21, 25, 28, 32, 35, and 39 • Dosage: Test compound: 10 μg/rabbit (volume: 0.2 ml) • Vehicle: 0.2 ml/rabbit • Means of administration: with the use of a 1.0-ml syringe (Terumo Corporation) and a 27 G injection needle (Terumo Corporation) (1-5) Pain Assessment (Weight Distribution Across both Hind Limbs) Frequency of Measurement:
Measurement was carried out 6 weeks after the treatment.
The widest areas at the joints of the right and left hind limbs were measured using digital calipers, and the articular swelling induced by osteoarthritis was determined using the following equation. Swelling (%) of treated limb (right hind limb)=[(right hind limb (mm)−left hind limb (mm))/(left hind limb (mm)[…])]×100 (1-7) Sampling of Biomaterials (day 42) and Post-Sampling Treatment

[1] = joint width, 10 μg/rabbit into joint cavity, Day 42, individual animals 201-206, listed as Test substance, sodium salt

In the case of CCCCCCCC/C=C\CCCCCCCC(=O)OCC1COP(=O)([O-])C1.[Na+] (centres unmarked) [ScPA, (9Z)-9-Octadecenoic acid-(2-hydroxy-2-oxide-1,2-oxaphospholan-4-yl)methyl ester sodium salt], the “Swelling, Mean” value (10 μg/rabbit into joint cavity, Day 42, group mean n=6, p=0.0164 vs vehicle) is reported as 0.6%, the “Swelling (%) of treated limb (right hind limb)” value (10 μg/rabbit into joint cavity, Day 42, individual animals 201-206, listed as Test substance, sodium salt) is reported as −1.75% and 1.58% and 3.72% and −5.46% and 6.59% and −1.97% and the “articular swelling compared with the vehicle administered group” value (day 42, p=0.0164) is reported as “inhibited more significantly”. For the same compound, the “Left hind limb (mm)” value [1] was 24.60 mm and 23.38 mm and 21.50 mm and 22.88 mm and 23.21 mm and 21.79 mm and the “Right hind limb (mm)” value [1] was 24.17 mm and 23.75 mm and 22.30 mm and 21.63 mm and 24.74 mm and 21.36 mm.
